We go through 41 compounds from ChEMBL document CHEMBL1124910, “Inhibition of human leukocyte elastase. 1. Inhibition by C-7-substituted cephalosporin tert-butyl esters” (J Med Chem, 1990).

Test [1] concerns the target T1, Neutrophil elastase (Homo sapiens, UniProt P08246).
T1 sequence (P08246 whole entry): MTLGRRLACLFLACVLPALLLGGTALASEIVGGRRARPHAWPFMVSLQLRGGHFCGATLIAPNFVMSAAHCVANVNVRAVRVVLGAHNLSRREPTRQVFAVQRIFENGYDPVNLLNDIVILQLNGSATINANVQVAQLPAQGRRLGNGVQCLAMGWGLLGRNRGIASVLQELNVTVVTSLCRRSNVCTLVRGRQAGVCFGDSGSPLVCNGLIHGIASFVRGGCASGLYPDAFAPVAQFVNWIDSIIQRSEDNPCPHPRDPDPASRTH
As to the kind of experiment: Inhibitory concentration which is required to cause 50% inhibition of human leukocyte elastase (HLE) enzyme.

For test [2], the target named is T2, Neutrophil elastase (Homo sapiens) (UniProt P08246).
T2 sequence (whole entry): T1 sequence (P08246 whole entry)
Description: Second-order rate constant (Kobs/[I]) for inactivation of Human Leukocyte Elastase was determined

In test [3] the target is T3, Chymotrypsinogen A (Bos taurus, UniProt P00766). As to the kind of experiment: Inhibitory concentration which is required to cause 50% inhibition of bovine alpha-chymotrypsin (ChT).
In test [4] the target is T4, Serine protease 1 (Bos taurus, UniProt P00760).
T4 sequence (P00760 whole entry): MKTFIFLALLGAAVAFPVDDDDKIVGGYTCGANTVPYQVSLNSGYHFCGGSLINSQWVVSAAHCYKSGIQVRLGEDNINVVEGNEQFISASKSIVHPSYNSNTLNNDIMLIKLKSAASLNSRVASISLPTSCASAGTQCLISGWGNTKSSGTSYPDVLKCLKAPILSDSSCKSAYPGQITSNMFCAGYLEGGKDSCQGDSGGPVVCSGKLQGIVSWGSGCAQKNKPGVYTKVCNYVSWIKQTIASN
As to the kind of experiment: Inhibitory concentration which is required to cause 50% inhibition of Trypsin.

The target in test [5] is T5, Pancreatic elastase (Sus scrofa, UniProt P08419+P00772). As to the kind of experiment: Inhibitory concentration which is required to cause 50% inhibition of porcine pancreatic elastase (PPE). The class given is protein assay.
Test [6] addresses T2, Neutrophil elastase (Homo sapiens). As to the kind of experiment: Second-order rate constant (Kobs/[I]) for inactivation was determined.
Test [7] has as its target T1, Neutrophil elastase. As to the kind of experiment: Inhibitory concentration which is required to cause 50% inhibition of human leukocyte elastase (HLE) enzyme; NVT indicates nonvalid test.
Test [8] has as its target T4, Serine protease 1. As to the kind of experiment: Inhibitory concentration which is required to cause 50% inhibition of bovine trypsin (Trp).
The target in test [9] is T3, Chymotrypsinogen A. As to the kind of experiment: Inhibitory concentration which is required to cause 50% inhibition of alpha-chymotrypsin enzyme.
For test [10], the target named is T5, Pancreatic elastase. As to the kind of experiment: Inhibitory concentration which is required to cause 50% inhibition of Porcine pancreatic elastase (PPE) enzyme. The class given is protein assay.

By IC50 is commonly meant the concentration needed to halve the response being measured. `CC(=O)OCC1=C(C(=O)OC(C)(C)C)N2C(=O)[C@H](NC(=O)Cc3cccs3)[C@H]2S(=O)(=O)C1` gave an IC50 in test [1] of over 40 µM.

`CCC(C)O[C@H]1C(=O)N2C(C(=O)OC(C)(C)C)=C(COC(C)=O)CS[C@H]12` (some centres undefined) had an IC50 in test [1] of over 40 µM.

In turn, `CCO[C@H]1C(=O)N2C(C(=O)OC(C)(C)C)=C(COC(C)=O)C[S+]([O-])[C@H]12` (stereo in doubt; 6b) came in with an IC50 in [1] of 40 µM.

In test [1], `CCC(=O)O[C@H]1C(=O)N2C(C(=O)OC(C)(C)C)=C(COC(C)=O)CS(=O)(=O)[C@H]12` yielded a half-maximal inhibitory concentration (IC50) of 10 µM. The compound also showed a K obs / 1 in [2] of 80 M⁻¹ s⁻¹.

The compound `O=C(OCc1ccccc1)[C@H]1/C(=C/CO)O[C@@H]2CC(=O)N21` registered an IC50 in test [1] of 4 µM.

`CCC(CC)O[C@H]1C(=O)N2C(C(=O)OC(C)(C)C)=C(COC(C)=O)CS(=O)(=O)[C@H]12` had an IC50 in test [1] of over 40 µM.

The compound `CCCC[C@H]1C(=O)N2C(C(=O)OC(C)(C)C)=C(COC(C)=O)CS(=O)(=O)[C@H]12` returned an IC50 in test [1] of 40 µM.

`O=C(O)[C@H]1/C(=C/CO)O[C@@H]2CC(=O)N21` [CLAVULANIC ACID] displayed an IC50 in [1] of under 40 µM.

For the compound `CC(=O)OCC1=C(C(=O)OC(C)(C)C)N2C(=O)[C@H](F)[C@H]2S(=O)(=O)C1`, the IC50 in test [1] was found to be 0.06 µM.

With `CC(=O)OCC1=C(C(=O)OC(C)(C)C)N2C(=O)[C@H](OCc3ccccc3)[C@H]2S(=O)(=O)C1`, the IC50 in test [1] was over 10 µM.

Consider `CC(=O)OCC1=C(C(=O)OC(C)(C)C)N2C(=O)[C@@H](NC(=O)C(F)(F)F)[C@H]2S(=O)(=O)C1`, for which the IC50 in test [1] is over 40 µM.

`CCCCO[C@H]1C(=O)N2C(C(=O)OC(C)(C)C)=C(COC(C)=O)CS(=O)(=O)[C@H]12` gave an IC50 in test [1] of over 40 µM.

In the case of `CC(=O)OCC1=C(C(=O)OC(C)(C)C)N2C(=O)[C@H](Oc3ccccc3)[C@H]2S(=O)(=O)C1`, it took 1 µM to reach half-maximal inhibition in [1] (IC50). Besides, the K obs / 1 in test [2] was 720 M⁻¹ s⁻¹.

As to `CC(=O)OCC1=C(C(=O)OC(C)(C)C)N2C(=O)[C@H](OC(C)=O)[C@H]2S(=O)(=O)C1`, the IC50 in test [1] was 6 µM; in test [3], over 40 µM; in [4] it was over 40 µM; in [5], 2 µM. In test [2], the K obs / 1 is 950 M⁻¹ s⁻¹.

Turning to `CO[C@H]1C(=O)N2C(C(=O)OC(C)(C)C)=C(COC(C)=O)CS(=O)(=O)[C@H]12`, the IC50 in [1] was found to be 1 µM. In test [2], this compound registered a K obs / 1 of 19000 M⁻¹ s⁻¹.

The compound `CO[C@H]1C(=O)N2C(C(=O)OC(C)(C)C)=C(COC(C)=O)C[S@@+]([O-])[C@H]12` yielded an IC50 in test [1] of over 40 µM.

As to `CC(=O)OCC1=C(C(=O)OC(C)(C)C)N2C(=O)[C@H](Cl)[C@H]2SC1`, the IC50 in [1] came out at 2 µM.

In turn, `CCC(C)O[C@H]1C(=O)N2C(C(=O)OC(C)(C)C)=C(COC(C)=O)CS(=O)(=O)[C@H]12` (some centres undefined) displayed a half-inhibitory concentration (IC50) in test [1] of 28 µM. Compared with the last compound, the IC50 is about 14-fold higher.

Regarding `CO[C@H]1C(=O)N2C(C(=O)OC(C)(C)C)=C(COC(C)=O)C[S@+]([O-])[C@H]12`, in test [1], the IC50 came out at 4 µM. In addition, the K obs / 1 in [6] amounted to 500 M⁻¹ s⁻¹.

In the case of `COC(=O)N[C@H]1C(=O)N2C(C(=O)OC(C)(C)C)=C(COC(C)=O)CS(=O)(=O)[C@H]12`, the IC50 in test [1] was 4 µM. The compound also showed a K obs / 1 in test [6] of 1600 M⁻¹ s⁻¹.

On to `CC(=O)OCC1=C(C(=O)OC(C)(C)C)N2C(=O)[C@H](OS(=O)(=O)c3ccc(C)cc3)[C@H]2SC1`, for which the IC50 entry in test [7] is “Non valid test”.

In test [1], `CC(=O)OCC1=C(C(=O)OC(C)(C)C)N2C(=O)[C@H](NC(=O)C(F)(F)F)[C@H]2S(=O)(=O)C1` had an IC50 of 2 µM. That is a single-digit micromolar value.

Compound `CC(=O)OCC1=C(C(=O)OC(C)(C)C)N2C(=O)[C@H](OC(=O)COc3ccccc3)[C@H]2S(=O)(=O)C1` came in with an IC50 in test [1] of 6 µM.

In test [1], `CC(=O)OCC1=C(C(=O)OC(C)(C)C)N2C(=O)[C@H](OC(=O)c3ccccc3)[C@H]2S(=O)(=O)C1` came in with an IC50 of over 40 µM.

`CC(=O)OCC1=C(C(=O)OC(C)(C)C)N2C(=O)[C@@H](N)[C@H]2SC1` returned a half-maximal inhibitory concentration (IC50) in [1] of over 40 µM.

Turning to `CC(=O)OCC1=C(C(=O)OC(C)(C)C)N2C(=O)[C@H](OC=O)[C@H]2S(=O)(=O)C1`, the IC50 in test [1] is 0.3 µM; in test [8], over 40 µM; in test [5] it was 0.4 µM. In [6], this compound returned a K obs / 1 of 59000 M⁻¹ s⁻¹.

As to `CCO[C@H]1C(=O)N2C(C(=O)OC(C)(C)C)=C(COC(C)=O)C[S+]([O-])[C@H]12` (stereo in doubt; 7b), in [1], the IC50 was over 40 µM.

In test [1], `CCC(=O)O[C@H]1C(=O)N2C(C(=O)OC(C)(C)C)=C(COC(C)=O)CS[C@H]12` gave an IC50 of 36 µM.

As to `CC(=O)OCC1=C(C(=O)OC(C)(C)C)N2C(=O)[C@H](NC=O)[C@H]2S(=O)(=O)C1`, in test [1], the IC50 is 4 µM. The K obs / 1 in test [6] is 1200 M⁻¹ s⁻¹.

`CC(=O)OCC1=C(C(=O)OC(C)(C)C)N2C(=O)[C@H](F)[C@H]2SC1`: the IC50 in test [1] worked out at 20 µM. That is a double-digit micromolar value.

`CC(=O)OCC1=C(C(=O)OC(C)(C)C)N2C(=O)[C@H](OCCc3ccccc3)[C@H]2S(=O)(=O)C1` yielded a concentration for half-maximal inhibition (IC50) in test [1] of 5 µM. This IC50 is about 4-fold lower than that of the compound before.

`CC(=O)OCC1=C(C(=O)OC(C)(C)C)N2C(=O)[C@@H](NC(=O)Cc3cccs3)[C@H]2S(=O)(=O)C1` gave an IC50 in test [1] of over 40 µM.

For `CO[C@H]1C(=O)N2C(C(=O)OC(C)(C)C)=C(COC(C)=O)CS[C@H]12`, the IC50 in test [1] turned out to be 10 µM.

Consider `CCCCO[C@H]1C(=O)N2C(C(=O)OC(C)(C)C)=C(COC(C)=O)CS[C@H]12`, for which, in test [1], the IC50 is over 40 µM.

`CCO[C@H]1C(=O)N2C(C(=O)OC(C)(C)C)=C(COC(C)=O)CS[C@H]12` returned an IC50 in test [1] of over 40 µM.

As for `CC(=O)OCC1=C(C(=O)OC(C)(C)C)N2C(=O)[C@H](OC(=O)Cc3ccccc3)[C@H]2S(=O)(=O)C1`, the IC50 in test [9] was 4 µM; in [1] it was 10 µM; in [10] it was 20 µM; in [4], over 40 µM.

In [1], `CNC(=O)O[C@H]1C(=O)N2C(C(=O)OC(C)(C)C)=C(COC(C)=O)CS(=O)(=O)[C@H]12` gave an IC50 of 1 µM. This compound displayed a K obs / 1 in test [2] of 180 M⁻¹ s⁻¹.

In test [1], `CC(=O)OCC1=C(C(=O)OC(C)(C)C)N2C(=O)C[C@H]2S(=O)(=O)C1` displayed an IC50 of over 40 µM.

In test [1], `CCCO[C@H]1C(=O)N2C(C(=O)OC(C)(C)C)=C(COC(C)=O)CS[C@H]12` gave an IC50 of over 40 µM.

Take `CO[C@@H]1C(=O)N2C(C(=O)OC(C)(C)C)=C(COC(C)=O)CS(=O)(=O)[C@H]12`: in [1], the IC50 is over 40 µM.

As to `CC(=O)OCC1=C(C(=O)OC(C)(C)C)N2C(=O)[C@H](Cl)[C@H]2S(=O)(=O)C1`, in test [1], the IC50 was 0.04 µM. The K obs / 1 in test [2] turned out to be 161000 M⁻¹ s⁻¹.
